Measured values: US20080171716A1, “NUCLEIC ACID MODULATION OF TOLL-LIKE RECEPTOR-MEDIATED IMMUNE STIMULATION” (Protiva Biotherapeutics, Inc., priority 2006, published 2008)

Biological target: T1, TLR9 (Mus musculus, UniProt Q9EQU3)
T1 construct: endogenous in cells; host or cells: Flt3L-derived dendritic cells cultured from bone marrow of female Balb/C mice
T1 sequence (Q9EQU3 26-1032): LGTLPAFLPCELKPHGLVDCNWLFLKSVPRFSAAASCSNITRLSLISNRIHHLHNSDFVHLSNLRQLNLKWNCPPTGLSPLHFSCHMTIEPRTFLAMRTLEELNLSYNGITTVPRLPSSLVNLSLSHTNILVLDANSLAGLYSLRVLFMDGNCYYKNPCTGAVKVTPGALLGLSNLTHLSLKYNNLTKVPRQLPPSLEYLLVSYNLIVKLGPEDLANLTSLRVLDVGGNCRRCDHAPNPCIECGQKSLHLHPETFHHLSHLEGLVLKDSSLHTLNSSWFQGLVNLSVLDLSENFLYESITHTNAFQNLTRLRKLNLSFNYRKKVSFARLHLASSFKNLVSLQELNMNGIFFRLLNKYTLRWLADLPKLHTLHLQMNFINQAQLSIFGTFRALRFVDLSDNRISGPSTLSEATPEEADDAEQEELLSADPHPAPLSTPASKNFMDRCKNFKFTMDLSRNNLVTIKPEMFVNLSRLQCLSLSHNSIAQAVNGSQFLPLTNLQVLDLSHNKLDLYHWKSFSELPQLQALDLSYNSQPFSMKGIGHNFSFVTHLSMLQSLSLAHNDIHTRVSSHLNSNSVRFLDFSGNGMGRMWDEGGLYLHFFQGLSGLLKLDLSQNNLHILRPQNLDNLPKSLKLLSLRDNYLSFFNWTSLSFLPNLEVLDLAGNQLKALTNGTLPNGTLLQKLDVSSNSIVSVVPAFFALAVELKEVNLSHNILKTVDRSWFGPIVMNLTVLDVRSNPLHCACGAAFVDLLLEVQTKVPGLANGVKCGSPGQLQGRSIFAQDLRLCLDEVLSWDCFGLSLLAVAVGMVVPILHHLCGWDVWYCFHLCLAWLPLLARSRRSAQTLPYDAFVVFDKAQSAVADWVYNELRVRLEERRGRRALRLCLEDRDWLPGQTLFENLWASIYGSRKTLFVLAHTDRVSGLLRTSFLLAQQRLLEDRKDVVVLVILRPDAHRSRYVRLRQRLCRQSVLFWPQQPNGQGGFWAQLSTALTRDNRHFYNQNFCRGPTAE
Test: CpG ODN (TLR9 agonist)-induced IFN-α in murine Flt3L-derived dendritic cells
Type: cell-based
Settings: murine Flt3L DC; 1:1 molar ratio
Method: Lipid Encapsulation of RNA and ODN. RNA or ODN were encapsulated in liposomes by a process of spontaneous vesicle formation as described in Judge et al., supra, and Jeffs et al., Pharm. Res., 22:362-372 (2005).
Flt3L-derived dendritic cells (DC) were generated as described in Gilliet et al., J. Exp. Med., 195:953-958 (2002), using 100 ng/ml murine Flt3-ligand (Peprotech) supplemented media. Femurs and tibiae of female Balb/C mice were isolated and rinsed in sterile PBS. The ends of bones were cut and marrow harvested in complete media (RPMI 1640, 10% heat inactivated FBS, 1% penicillin/streptomycin, 2 mM L-glutamine, 1 mM sodium pyruvate, 25 mM HEPES, 50 μM 2-mercaptoethanol). Bone marrow cells were passed through a 70 μm strainer and centrifuged at 1000 rpm for 7 min. and resuspended in complete media supplemented with 100 ng/ml murine Flt3L to 2×10^6 cells/ml. 2 ml of cells were seeded in 6-well plates and 1 ml fresh media was added every two to three days. On day 9 of culture, non-adherent cells were washed in complete media and plated into 96-well plates at concentrations ranging from 0.5 to 2.5×10^5 cells/well.
Loxoribine (InvivoGen; San Diego, Calif.), polyIC (Sigma-Aldrich; St. Louis, Mo.), and formulated nucleic acids were diluted in PBS and added to either human PBMC or Flt3L DC cultures. Cells were incubated 24 h at 37° C. before supernatants were assayed for cytokines by ELISA.
Cytokine ELISA. All cytokines were quantified using sandwich ELISA kits according to the manufacturer's instructions. These were mouse and human IFN-α (PBL Biomedical; Piscataway, N.J.) and IL-6 (eBioscience; San Diego, Calif.).

Substance: polyUmod21: 2′OMe-uridine homopolymer of 21 nucleotides in length (UUUUUUUUUUUUUUUUUUUUU; all 2'-O-methyl, backbone not given here)
- level of IFN-α induction by Type B ODN (1826) when co-formulated: no inhibitory effect
- level of IFN-α induction by Type C ODN (M362) when co-formulated: no inhibitory effect
